GI50 and TGI data for seven molecules are collected here from PubChem BioAssay (NCI).

SMILES strings stand for the structures. “And” between values parts separate entries of the source, which are not always exact repeats. Identical values can stand only once.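 Results reflect a 48-hour exposure of cells in 96-well plates to compound at five concentrations. Here, GI50 denotes the concentration required for 50% inhibition of growth. The concentration for full growth arrest is given as TGI.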

Among the test systems are SNB-75 CNS; SK-MEL-2 melanoma; MOLT-4 leukemia; ACHN renal; DU-145 prostate; SF-268 CNS; 786-0 renal; UACC-62 melanoma; SK-MEL-5 melanoma; OVCAR-4 ovarian.
Assay in all cases: DTP human tumour cell line panel, 48 h

Take `Fc1cccc(-n2ccc(-c3ccccc3)nc2=S)c1`: the GI50 was 26.7 µM in the assay with SNB-75 CNS; greater than 100 µM with SK-MEL-2 melanoma; 54 µM with MOLT-4 leukemia; 16.7 µM with ACHN renal; 20.3 µM in the assay on DU-145 prostate; 32.3 µM in the assay on SF-268 CNS. Besides, the GI50 in the assay with 786-0 renal was 21.2 µM; in the assay with UACC-62 melanoma, greater than 54.6 µM; in the assay with SK-MEL-5 melanoma it was 23.1 µM; with OVCAR-4 ovarian, 98.6 µM. Besides, the concentration for total growth inhibition (TGI) with SNB-75 CNS was greater than 70.6 µM; in the assay with SK-MEL-2 melanoma, greater than 100 µM; in the assay on MOLT-4 leukemia, greater than 100 µM; in the assay on ACHN renal, 30.4 µM; in the assay with DU-145 prostate, 66.7 µM; in the assay on SF-268 CNS, greater than 100 µM. The concentration for total growth inhibition (TGI) is 44.1 µM in the assay on 786-0 renal, greater than 100 µM in the assay with UACC-62 melanoma, greater than 73.1 µM in the assay with SK-MEL-5 melanoma and greater than 100 µM with OVCAR-4 ovarian.

Turning to `Cc1cc(-c2ccccn2)cc(C)c1/C=C/c1cncc(-c2nn[nH]n2)c1`, the GI50 in the assay on SNB-75 CNS, in the assay with SK-MEL-2 melanoma, with MOLT-4 leukemia, with ACHN renal, with DU-145 prostate and in the assay with SF-268 CNS was greater than 25 µM in each case. For the same molecule, the GI50 in the assay on 786-0 renal, in the assay on UACC-62 melanoma, in the assay with SK-MEL-5 melanoma and in the assay with OVCAR-4 ovarian was greater than 25 µM each time. The concentration for total growth inhibition (TGI) with SNB-75 CNS, with SK-MEL-2 melanoma, in the assay on MOLT-4 leukemia, with ACHN renal, with DU-145 prostate and in the assay with SF-268 CNS was greater than 25 µM in each case. Further, the TGI in the assay with 786-0 renal, in the assay on UACC-62 melanoma, in the assay with SK-MEL-5 melanoma and in the assay with OVCAR-4 ovarian was greater than 25 µM in each case.

For the molecule `COc1cc(-c2csc(NC(=O)Nc3ccc(C(F)(F)F)cc3)n2)cc(OC)c1OC`, the GI50 in the assay on SNB-75 CNS is 1.43 µM; with SK-MEL-2 melanoma, 2.43 µM; in the assay on MOLT-4 leukemia it was 1.85 µM; in the assay on ACHN renal it was 2.11 µM; in the assay with DU-145 prostate, 3.22 µM; in the assay on SF-268 CNS, 2.92 µM. In addition, the GI50 with 786-0 renal was 1.62 µM; in the assay on UACC-62 melanoma, 1.99 µM; with SK-MEL-5 melanoma, 1.62 µM; in the assay with OVCAR-4 ovarian, 2.02 µM. Also, the total growth inhibition concentration (TGI) in the assay on SNB-75 CNS stood at 5.52 µM; with SK-MEL-2 melanoma it was 5.81 µM; in the assay on MOLT-4 leukemia, 5.46 µM; in the assay with ACHN renal, 6.13 µM; with DU-145 prostate, 12.8 µM; with SF-268 CNS it was 13.7 µM. The concentration for total growth inhibition (TGI) with 786-0 renal stood at 3.54 µM; with UACC-62 melanoma it was 5.38 µM; with SK-MEL-5 melanoma it was 3 µM; in the assay on OVCAR-4 ovarian, 9.07 µM.

As for `O=C1/C(=C/c2ccc(Cl)cc2)CCC/C1=C\c1ccc(Cl)cc1`, the GI50 in the assay with SNB-75 CNS is greater than 100 µM; in the assay with SK-MEL-2 melanoma, greater than 100 µM; in the assay with MOLT-4 leukemia, 4.09 µM; in the assay with ACHN renal it was 6.83 µM; in the assay on DU-145 prostate, 4.09 µM; in the assay on SF-268 CNS it was 3.24 µM. Further, the GI50 in the assay on 786-0 renal is 5.55 µM; with UACC-62 melanoma it was 4.39 µM; in the assay with SK-MEL-5 melanoma, 4.26 µM; in the assay on OVCAR-4 ovarian, 5.17 µM. In addition, the TGI in the assay on SNB-75 CNS is greater than 100 µM; in the assay on SK-MEL-2 melanoma it was greater than 100 µM; in the assay with MOLT-4 leukemia, greater than 100 µM; with ACHN renal it was greater than 100 µM; in the assay on DU-145 prostate, greater than 100 µM; in the assay with SF-268 CNS it was 12.7 µM. In addition, the total growth inhibition concentration (TGI) in the assay with 786-0 renal, with UACC-62 melanoma, in the assay on SK-MEL-5 melanoma and with OVCAR-4 ovarian was greater than 100 µM throughout.

Consider `CCOC(=O)C#Cc1c(C(=O)OCC)nnn1Cc1ccc([N+](=O)[O-])cc1`, for which the GI50 in the assay with SNB-75 CNS is 6.29 µM; in the assay with SK-MEL-2 melanoma, 13 µM; in the assay on MOLT-4 leukemia, 2.16 µM; with ACHN renal it was 1.89 µM; with DU-145 prostate, 3.88 µM; with SF-268 CNS it was 7.49 µM. Also, the GI50 with 786-0 renal is 3.29 µM; with UACC-62 melanoma, 1.83 µM; with SK-MEL-5 melanoma, 8.86 µM; in the assay with OVCAR-4 ovarian, 2.54 µM. Besides, the TGI in the assay on SNB-75 CNS is 20.5 µM; in the assay with SK-MEL-2 melanoma it was 26.3 µM; in the assay with MOLT-4 leukemia, 13.3 µM; with ACHN renal it was 3.45 µM; in the assay on DU-145 prostate, 14.2 µM; in the assay on SF-268 CNS it was 21.5 µM. The total growth inhibition concentration (TGI) in the assay with 786-0 renal was determined as 10.8 µM; in the assay on UACC-62 melanoma, 4.42 µM; in the assay on SK-MEL-5 melanoma, 21 µM; in the assay on OVCAR-4 ovarian it was 7.14 µM.

In the case of `CCOC(=O)C1=C(C)N(Cc2ccc(Cl)cc2Cl)C2(O)C=CC(=O)C3=C(O)c4ccccc4C(=O)C312` (stereo not given), the GI50 in the assay on SNB-75 CNS was 16.9 µM; in the assay on SK-MEL-2 melanoma, 38.4 µM; in the assay on MOLT-4 leukemia, 3.87 µM; with ACHN renal, 3.82 µM; in the assay on DU-145 prostate it was 7.99 µM; with SF-268 CNS it was 6.72 µM. Moreover, the GI50 with 786-0 renal is 3.54 µM; in the assay with UACC-62 melanoma, 4.72 µM; in the assay with SK-MEL-5 melanoma, 7.38 µM; in the assay with OVCAR-4 ovarian it was 11.5 µM. Further, the total growth inhibition concentration (TGI) with SNB-75 CNS was greater than 100 µM; in the assay on SK-MEL-2 melanoma, greater than 100 µM; in the assay with MOLT-4 leukemia it was greater than 100 µM; in the assay on ACHN renal, 18.2 µM; with DU-145 prostate, 28.8 µM; in the assay on SF-268 CNS, 37.5 µM. The TGI with 786-0 renal is 15.2 µM; in the assay on UACC-62 melanoma, 18.9 µM; with SK-MEL-5 melanoma it was 23.3 µM; with OVCAR-4 ovarian, greater than 100 µM.

Turning to `COc1cc2nccc(Oc3ccc(NC(=O)Nc4cc(C)on4)c(Cl)c3)c2cc1OC`, the GI50 is 1.99 µM and 2.06 µM in the assay with SNB-75 CNS; 3.56 µM and 3.33 µM in the assay on SK-MEL-2 melanoma; 2.12 µM and 1.86 µM with MOLT-4 leukemia; 3.28 µM and 3.72 µM with ACHN renal; 4.31 µM and 6.6 µM with DU-145 prostate; 2.58 µM and 3.09 µM with SF-268 CNS. In addition, the GI50 in the assay on 786-0 renal was 3.43 µM and 4.11 µM; in the assay on UACC-62 melanoma, 2.12 µM and 1.82 µM; in the assay with SK-MEL-5 melanoma, 2.04 µM and 2.81 µM; in the assay with OVCAR-4 ovarian, 2.34 µM and 4.13 µM. Moreover, the TGI in the assay with SNB-75 CNS is 6.24 µM and > 10 µM; with SK-MEL-2 melanoma, 10.4 µM and > 10 µM; with MOLT-4 leukemia, 44.1 µM and > 10 µM; in the assay with ACHN renal, 22.3 µM and > 10 µM; in the assay on DU-145 prostate, greater than 77.8 µM; with SF-268 CNS it was greater than 55.3 µM. In addition, the TGI in the assay with 786-0 renal is 23.3 µM and > 10 µM; with UACC-62 melanoma it was 16.4 µM and > 10 µM; with SK-MEL-5 melanoma, 5.69 µM and > 10 µM; in the assay with OVCAR-4 ovarian, greater than 65.2 µM.
